Assays:
[1] = biological target: T1, HCV polymerase (NS5B570n-Con1) (Hepatitis C virus genotype 1b, UniProt Q9WMX2); assay: HCV NS5B RNA Polymerase Activity; type: biochemical, HCV Con1 strain
T1 construct: contains a 21 amino acid deletion at the C-terminus relative to the full-length HCV polymerase; 6-histidine (N); made in house; host or cells: E. coli BL21(DE) pLysS, plasmid pET 17b
Protocol: The enzymatic activity of HCV polymerase (NS5B570n-Con1) was measured as the incorporation of radiolabeled nucleotide monophosphates into acid insoluble RNA products. Unincorporated radiolabeled substrate was removed by filtration and scintillant was added to the washed and dried filter plate containing radiolabeled RNA product. The amount of RNA product generated by NS5B570-Con1 at the end of the reaction was directly proportional to the amount of light emitted by the scintillant.
The N-terminal 6-histidine tagged HCV polymerase, derived from HCV Con1 strain, genotype 1b (NS5B570n-Con1) contains a 21 amino acid deletion at the C-terminus relative to the full-length HCV polymerase and was purified from E. coli strain BL21(DE) pLysS. The construct, containing the coding sequence of HCV NS5B Con1 (GenBank accession number AJ242654) was inserted into the plasmid construct pET 17b, downstream of a T7 promoter expression cassette and transformed into E. coli. A single colony was grown overnight as a starter culture and later used inoculate 10 L of LB media supplemented with 100 μg/mL ampicillin at 37° C. Protein expression was induced by the addition of 0.25 mM isopropyl-β-D-thiogalactopyranoside (IPTG) when optical density at […] of the culture was between 0.6 and 0.8 and cells were harvested after 16 to 18 h at 30° C. NS5B570n-Con1 was purified to homogeneity using a three-step protocol including subsequent column chromatography on Ni-NTA, SP-Sepharose HP and Superdex 75 resins.
Each 50 μL enzymatic reaction contained 20 nM RNA template derived from the complementary sequence of the Internal Ribosome Entry Site (cIRES), 20 nM NS5B570n-Con1 enzyme, 0.5 μCi of tritiated UTP (Perkin Elmer catalog no. TRK-412; specific activity: 30 to 60 Ci/mmol; stock solution concentration from 7.5×10^−5 M to 20.6×10^−6 M), 1 μM each ATP, CTP, and GTP, 40 mM Tris-HCl pH 8.0, 40 mM NaCl, 4 mM DTT (dithiothreitol), 4 mM MgCl2, and 5 μl of compound serial diluted in DMSO. Reaction mixtures were assembled in 96-well filter plates (cat #MADVN0B, Millipore Co.) and incubated for 2 h at 30° C. Reactions were stopped by addition of 10% final (v/v) trichloroacetic acid and incubated for 40 min at 4° C. Reactions were filtered, washed with 8 reaction volumes of 10% (v/v) trichloroacetic acetic acid, 4 reaction volumes of 70% (v/v) ethanol, air dried, and 25 μl of scintillant (Microscint 20, Perkin-Elmer) was added to each reaction well.
The amount of light emitted from the scintillant was converted to counts per minute (CPM) on a Topcount® plate reader (Perkin-Elmer, Energy Range: Low, Efficiency Mode Normal, Count Time: 1 min, Background Subtract: none, Cross talk reduction: Off).
Data was analyzed in Excel® (Microsoft) and ActivityBase® (Idbs®). The reaction in the absence of enzyme was used to determine the background signal, which was subtracted from the enzymatic reactions. Positive control reactions were performed in the absence of compound, from which the background corrected activity was set as 100% polymerase activity. All data was expressed as a percentage of the positive control. The compound concentration at which the enzyme-catalyzed rate of RNA synthesis was reduced by 50% (IC50) was calculated by fitting equation (i) to the data where“Y”
[formula] corresponds to the relative enzyme activity (in %), “% Min” is the residual relative activity at saturating compound concentration, “% Max” is the relative maximum enzymatic activity, “X” corresponds to the compound concentration, and “S” is the Hill coefficient (or slope).

[2] = system: HCV replicon cells (2209-23), genotype 1b replicon; assay: HCV Replicon Assay (Renilla luciferase reporter); type: cell-based, HCV genotype 1b; conditions: Hepatitis C virus, 72 h; cell line 2209-23, luciferase activity after three days
in vitro = conditions: human
HCV = conditions: cited from earlier work

| SMILES | IC50 [1] [nM] | IC50 [2] [nM] | melting point [°C] | CC50 at 3 days (in vitro) [nM] | serum amino transferase levels reduced to normal, share of patients (HCV; monotherapy) [%] | effect on serum HCV-RNA (HCV; sole treatment / monotherapy) |
| --- | --- | --- | --- | --- | --- | --- |
| COc1c(C(C)(C)C)cc(-c2ccc[nH]c2=O)c2ncc(N3CC[C@H](CNS(C)(=O)=O)C3)cc12 [Compound I-18, N-{(S)-1-[6-tert-Butyl-5-methoxy-8-(2-oxo-1,2-dihydro-pyridin-3-yl)-quinolin-3-yl]-pyrrolidin-3-ylmethyl}-methanesulfonamide] | 0.2 | 5.2 | 275 to 280 | 30300 |  |  |
| NC(=O)c1ncn([C@@H]2O[C@H](CO)[C@@H](O)[C@H]2O)n1 [ribavirin, 1-((2R,3R,4S,5R)-3,4-Dihydroxy-5-hydroxymethyl-tetrahydro-furan-2-yl)-1H-[1,2,4]triazole-3-carboxylic acid amide] |  |  |  |  | 40 | does not lower serum levels of HCV-RNA |

Reference: patent US8487103B2 (Roche Palo Alto LLC, priority 2009, dated 2013)
